IC50 data for 50 molecules are collected here from ChEMBL document CHEMBL5604063, “ASAP - DENV-2 NS2B-NS3 protease fluorescence dose response” (2024).

Assay [1] concerns the target T1, Genome polyprotein (dengue virus type 2, UniProt P29990). The assay is classed as functional, Thailand/16681/1984.
Assay [2] deals with T1, Genome polyprotein. The class given is functional, Thailand/16681/1984. The source holds these as a separate data set.

Values joined by “and” are separate entries in the source; they are usually repeats but may differ in a detail not shown here. Equal values may be shown once.

T1 sequence (P29990 1346-1475 limits assumed): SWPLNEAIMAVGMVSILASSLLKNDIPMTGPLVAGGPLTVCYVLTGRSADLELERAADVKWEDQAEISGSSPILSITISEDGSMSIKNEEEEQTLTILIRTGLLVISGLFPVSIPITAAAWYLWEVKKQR
T1 sequence (P29990 1476-2093 limits assumed): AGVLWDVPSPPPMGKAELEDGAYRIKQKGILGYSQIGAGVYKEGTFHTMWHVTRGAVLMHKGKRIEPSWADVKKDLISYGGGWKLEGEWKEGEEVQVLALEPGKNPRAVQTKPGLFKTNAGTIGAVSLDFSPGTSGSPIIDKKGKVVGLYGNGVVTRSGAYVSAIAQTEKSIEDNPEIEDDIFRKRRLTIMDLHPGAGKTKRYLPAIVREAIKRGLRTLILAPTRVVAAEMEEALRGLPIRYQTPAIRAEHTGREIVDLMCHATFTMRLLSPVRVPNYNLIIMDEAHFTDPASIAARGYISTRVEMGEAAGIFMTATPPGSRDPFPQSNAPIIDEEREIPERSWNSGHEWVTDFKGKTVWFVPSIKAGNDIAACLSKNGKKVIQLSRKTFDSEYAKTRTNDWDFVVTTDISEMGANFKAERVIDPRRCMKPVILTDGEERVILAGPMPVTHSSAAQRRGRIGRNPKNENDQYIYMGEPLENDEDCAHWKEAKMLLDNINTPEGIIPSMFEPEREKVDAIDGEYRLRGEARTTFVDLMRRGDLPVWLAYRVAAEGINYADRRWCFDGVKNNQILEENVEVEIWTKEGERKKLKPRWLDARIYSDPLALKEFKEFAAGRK

As a reminder, the IC50 is the concentration needed to halve the response being measured. For `O=C(Nc1ccc2c(c1)CNC2)c1ccc2c(c1)C1(CC1)C(=O)N2`, the IC50 against Genome polyprotein [1] is over 99.5 µM; at Genome polyprotein [2], over 100 µM.
For `O=C1Cc2c(cccc2C(=O)Nc2ccc3c(c2)[C@H](O)CCO3)N1` the same measures were over 99.5 µM and over 100 µM.
For `CSc1cc2c(cc1NC(=O)c1cc(F)cc3[nH]ncc13)CNC2` the same measures were 71.1 µM and over 100 µM.
For `CN1CCC[C@H](c2nc3c(C(=O)Nc4ccc5c(c4)CNC5)cc(F)cc3[nH]2)C1=O` the same measures were over 99.5 µM and over 100 µM.
On to `O=C(NCC(F)F)[C@H](Nc1ccc2c(c1)CNC2)c1cc(Br)cc2nc[nH]c12`, for which the figures for the IC50 against Genome polyprotein [1] and at Genome polyprotein [2] were over 99.5 µM and over 100 µM, respectively.
On the same counts, the results for `O=C1Cc2c(cccc2C(=O)Nc2cnn(Cc3ccncc3)c2)N1` are over 99.5 µM and over 100 µM.
As to `CC(C)(C)OC(=O)N1Cc2cc(NC(=O)c3cc(Cl)cc4c3cnn4[C@@H]3CCCCO3)ccc2[C@H]1CO`, the figures for the IC50 at Genome polyprotein [1] and on Genome polyprotein [2] were over 99.5 µM and over 100 µM, respectively.
In the case of `CO[C@]1(C)C(=O)Nc2cc(F)cc(C(=O)Nc3ccc4c(c3)CNC4)c21`, the IC50 is over 99.5 µM on Genome polyprotein [1] and over 100 µM at Genome polyprotein [2].
For `O=C1Cc2c(cccc2C(=O)Nc2ccc3c(c2)CCNCC3)N1` the same measures were 21 µM and 33.8 µM.
For `C[C@]1(OCCCO)C(=O)Nc2cc(F)cc(C(=O)Nc3ccc4c(c3)CNC4)c21` the same measures were over 99.5 µM and over 100 µM.
For `O=C(Nc1cnc2c(c1)CNC2)c1cc(F)cc2[nH]ncc12`, the IC50 against Genome polyprotein [1] is 36.5 µM; against Genome polyprotein [2] it was 46.6 µM and 49.7 µM.
As for `CC(C)CO[C@]1(C)C(=O)Nc2cc(F)cc(C(=O)Nc3ccc4c(c3)CNC4)c21`, the 50% inhibitory concentration (IC50) against Genome polyprotein [1] is over 99.5 µM; on Genome polyprotein [2] it was over 100 µM.
Consider `O=C1Nc2ccc(C(=O)Nc3ccc4c(c3)CNC4)cc2C1=O`, for which the IC50 on Genome polyprotein [1] was 2.66 µM and 1.99 µM; against Genome polyprotein [2], 5.35 µM and 5.79 µM.
In the case of `CCS(=O)(=O)c1ccc(Cl)cc1[C@H](Nc1ccc2c(c1)CNC2)C(=O)NCC(F)F`, the IC50 against Genome polyprotein [1] is over 99.5 µM; at Genome polyprotein [2] it was over 100 µM.
On the same counts, the results for `Cc1c(C(=O)Nc2cc(C(=O)N3CC4(CCO4)C3)ccn2)cc(C2CC2)n1C` are over 99.5 µM and over 100 µM.
For `O=C1Cc2c(cccc2C(=O)Nc2cnc(OC3CCC3)nc2)N1`, the IC50 at Genome polyprotein [1] is over 99.5 µM; at Genome polyprotein [2], over 100 µM.
On to `Cn1nc([C@H](Nc2cc([C@H]3CCOC3)ccn2)C(F)(F)F)cc1C1CC1`, for which the IC50 against Genome polyprotein [1] is over 99.5 µM; at Genome polyprotein [2], over 100 µM.
On the same counts, the results for `Cc1cc(CN)cc(NC(=O)c2cccc3c2CC(=O)N3)c1` are 75.9 µM and over 100 µM.
On the same counts, the results for `Cc1c(C(=O)Nc2cc(C(=O)N(C)C3COC3)ccn2)cc(C2CC2)n1C` are over 99.5 µM and over 100 µM.
Consider `O=C1Cc2c(cccc2C(=O)Nc2ccc(Cl)c(CO)n2)N1`, for which the IC50 on Genome polyprotein [1] was over 99.5 µM; against Genome polyprotein [2] it was over 100 µM.
On the same counts, the results for `O=C(Nc1ccc2c(c1)CNC2)c1cc(F)cc(-c2cnc3n2CCC3)c1` are over 99.5 µM and over 100 µM.
For `N#CCc1cc(NC(=O)c2cc(F)cc3[nH]ncc23)cc2c1CNC2`, the IC50 on Genome polyprotein [1] is 23.5 µM; at Genome polyprotein [2], 38.3 µM and 18.9 µM.
Turning to `C[C@]1(OCCO)C(=O)Nc2cc(F)cc(C(=O)Nc3ccc4c(c3)CNC4)c21`, the IC50 against Genome polyprotein [1] was over 99.5 µM; against Genome polyprotein [2] it was over 100 µM.
Consider `O=C(NCC(F)F)[C@H](Nc1ccc2c(c1)CNC2)c1cc(Cl)cc(Cl)c1OCCN1CCOCC1`, for which the IC50 was over 99.5 µM at Genome polyprotein [1] and over 100 µM against Genome polyprotein [2].
On the same counts, the results for `O=C1Cc2c(cccc2C(=O)Nc2ccc3c(c2)CNCC3)N1` are 76.4 µM and over 100 µM.
For `O=C(NCC(F)F)[C@H](Nc1cnc2c(c1)CNC2)c1cc(Cl)cc(C2CC2)c1` the same measures were over 99.5 µM and over 100 µM.
For `CC(C)Oc1ccc(Cl)cc1[C@H](Nc1ccc2c(c1)CNC2)C(=O)NCC(F)F` the same measures were over 99.5 µM and over 100 µM.
On to `O=C(Nc1ccc2c(c1)CNC2)c1cccc2c(C3CNC3)n[nH]c12`, for which the IC50 against Genome polyprotein [1] is 19 µM and 17.2 µM; against Genome polyprotein [2], 22.7 µM and 26.4 µM.
With `O=C(NCC(F)F)[C@H](Nc1ccc2c(c1)CNC2)c1cc(Br)ccc1OCc1ccccn1`, the results for the 50% inhibitory concentration (IC50) on Genome polyprotein [1] and against Genome polyprotein [2] were over 99.5 µM and over 100 µM, respectively.
Consider `Clc1cc(CNc2ccc3c(c2)[C@@H]2CC[C@H]3N2)c2cn[nH]c2c1`, for which the IC50 is over 99.5 µM at Genome polyprotein [1] and over 100 µM against Genome polyprotein [2].
In the case of `O=C1Cc2c(cccc2C(=O)Nc2cccc(Cc3nn[nH]n3)c2)N1`, the IC50 against Genome polyprotein [1] is over 99.5 µM; against Genome polyprotein [2], over 100 µM.
Take `O=C1Cc2c(cccc2C(=O)Nc2ccc3c(c2)CNCCO3)N1`: the results for the IC50 on Genome polyprotein [1] and against Genome polyprotein [2] were over 99.5 µM and over 100 µM, respectively.
On the same counts, the results for `NCc1cccc(NC(=O)c2cccc3c2CC(=O)N3)c1` are over 99.5 µM and over 100 µM.
On the same counts, the results for `CS(=O)(=O)c1cncc(-c2cc(F)cc(C(=O)Nc3ccc4c(c3)CNC4)c2)c1` are over 99.5 µM and over 100 µM.
On the same counts, the results for `CC(=O)N(c1ccc2c(c1)CNC2)[C@H](C(=O)NCC(F)F)c1cc(Cl)cc(C2CC2)c1` are over 99.5 µM and over 100 µM.
Consider `COCCO[C@]1(C)C(=O)Nc2cc(F)cc(C(=O)Nc3ccc4c(c3)CNC4)c21`, for which the IC50 against Genome polyprotein [1] was over 99.5 µM; against Genome polyprotein [2], over 100 µM.
For `O=C(NCC(F)F)[C@H](Nc1ccc2c(c1)CNC2)c1cc(Br)ccc1C1CC1` the same measures were over 99.5 µM and over 100 µM.
For `CCc1cnc2c(NC(=O)c3cccc4c3CC(=O)N4)cnn2c1` the same measures were over 99.5 µM and over 100 µM.
As to `N#Cc1c[nH]c2c(C(=O)Nc3ccc4c(c3)CNC4)cccc12`, the IC50 is over 99.5 µM on Genome polyprotein [1] and over 100 µM at Genome polyprotein [2].
`O=C1Cc2c(cccc2C(=O)Nc2ccc3c(n2)CNC3)N1`: the IC50 was over 99.5 µM at Genome polyprotein [1] and over 100 µM against Genome polyprotein [2].
For `O=C(NCC(F)F)[C@H](Nc1ccc2c(c1)CNC2)c1cc(Br)cc2ccccc12` the same measures were over 99.5 µM and over 100 µM.
Consider `Cc1[nH]c2c(C(=O)Nc3ccc4c(c3)CNC4)cccc2c1C`, for which the half-maximal inhibitory concentration (IC50) against Genome polyprotein [1] is over 99.5 µM; against Genome polyprotein [2], over 100 µM.
As to `O=C(Nc1cc2c(cn1)CNC2)c1cc(F)cc2[nH]ncc12`, the IC50 on Genome polyprotein [1] is over 99.5 µM; against Genome polyprotein [2], over 100 µM.
Consider `O=C(O)C[C@H]1NCc2cc(NC(=O)c3cc(Cl)cc4[nH]ncc34)ccc21`, for which the IC50 was over 99.5 µM on Genome polyprotein [1] and over 100 µM against Genome polyprotein [2].
Regarding `O=C(NCC(F)F)[C@H](Nc1ccc2c(c1)CNC2)c1cc(Cl)ccc1OC[C@H]1CCCO1`, the IC50 against Genome polyprotein [1] is over 99.5 µM; at Genome polyprotein [2], over 100 µM.
For `O=C(Nc1ccc2c(c1)CNC2)c1cccc2c3c([nH]c12)CCC3` the same measures were over 99.5 µM and over 100 µM.
As for `O=C1CCc2cc(C(=O)Nc3ccc4c(c3)CNC4)cc(F)c2N1`, the IC50 against Genome polyprotein [1] is over 99.5 µM; against Genome polyprotein [2] it was over 100 µM.
As to `CC(C)O[C@]1(C)C(=O)Nc2cc(F)cc(C(=O)Nc3ccc4c(c3)CNC4)c21`, the figures for the IC50 on Genome polyprotein [1] and at Genome polyprotein [2] were over 99.5 µM and over 100 µM, respectively.
On the same counts, the results for `Cc1c(C(=O)Nc2cc(C(=O)N3CC(C(N)=O)C3)ccn2)cc(C2CC2)n1C` are over 99.5 µM and over 100 µM.
For the molecule `N[C@H]1Cc2ccc(NC(=O)c3cccc4c3CC(=O)N4)cc2C1`, the IC50 against Genome polyprotein [1] is 20.5 µM; on Genome polyprotein [2] it was 48.5 µM and 56.1 µM.
